Counter-ions that a name gives are not always drawn. Like-named read-outs stand apart in the source and are kept apart here.
Key:
Sprague–Dawley rats [1] = assay: Acoustic startle: startle magnitude; assay type: in vivo, rat
Sprague–Dawley rats [2] = assay: Prepulse inhibition; assay type: in vivo, rat
Sprague–Dawley rats [3] = assay: Behavioral Pattern Monitor locomotor activity; assay type: in vivo, rat; details: 5-MeO-DMT 1 mg/kg SC, clorgyline 0.3 mg/kg pretreatment; fifth 10-min time block, p<0.05
[4] = 5-MeO-DMT and bufotenine levels in plasma by LC-ESI-SRM-MS/MS; assay type: in vivo, rat; details: for AUC / Cmax: rat, plasma, sc, 1 mg/kg, 1 mg/kg SC; for AUC: plasma AUC20→70 min for 5-MeO-DMT, trapezoidal rule; for Cmax: plasma Cmax of 5-MeO-DMT
[5] = 5-MeO-DMT and bufotenine levels in whole brain by LC-ESI-SRM-MS/MS; assay type: in vivo, rat; details: for Cmax: rat, whole brain, sc, 1 mg/kg, Cmax of 5-MeO-DMT in whole brain
5-HT2A [6] = details: rats; ref Bedard and Pycock 1977; Matthews and Smith 1980; cited from earlier work
5-HT2A [7] = details: cited from earlier work
5-HT uptake = details: ref Berge et al. 1983; Chang et al. 1993; Nagai et al. 2007; cited from earlier work
[8] = 10 mg/kg IP; ref Sitaram et al. 1987; cited from earlier work
[9] = after SC administration of 1 mg/kg
[10] = clorgyline 0.3 mg/kg pretreatment

With C#CCN(C)CCCOc1ccc(Cl)cc1Cl.Cl [Clorgyline, N-methyl-N-propargyl-3-(2,4-dichlorophenoxy)-propylamine HCl] as the compound, how does the “Startle magnitude (mean±SEM)” value (Sprague–Dawley rats [1]; clorgyline 0.3 mg/kg SC pretreatment, vehicle treatment, experiment 2, n=12) read?
Its value is 422.31±78.47.

What does the source list for OC(c1ccccc1)C1CCN(CCc2ccccc2)CC1 (stereo not drawn) [MDL 11,939, α-Phenyl-1-(2-phenylethyl)-4-piperidinemethanol]?
Startle magnitude (mean±SEM) (Sprague–Dawley rats [1]; MDL 11,939 0.3 mg/kg pretreatment, pargyline 10 + 5-MeO-DMT 1.0 mg/kg, experiment 3, n=10): 419.79±48.30; Effect of pretreatment on ability of pargyline and 5-MeO-DMT to reduce PPI (Sprague–Dawley rats [2]; MDL 11,939 0.3 mg/kg pretreatment, p<0.01, Tukey's test): significantly attenuated

With COc1ccccc1N1CCN(CCN(C(=O)C2CCCCC2)c2ccccn2)CC1.O=C(O)/C=C\C(=O)O [WAY-100635, N-[2-[4-(2-methoxyphenyl)-1-piperazinyl]ethyl]-N-2-pyridinylcyclohexanecarboxamide maleate] as the compound, how does the “Startle magnitude (mean±SEM)” value (Sprague–Dawley rats [1]; WAY-100635 1.0 mg/kg SC pretreatment, vehicle treatment, experiment 3, n=10) read?
Its value is 271.30±51.26.

What about the “Startle magnitude (mean±SEM)” value (Sprague–Dawley rats [1]; WAY-100635 1.0 mg/kg pretreatment, pargyline 10 + 5-MeO-DMT 1.0 mg/kg, experiment 3, n=10) of the same compound?
The value was 172.03±47.00.

And the “Effect of pretreatment on reduction of PPI produced by 10 mg/kg pargyline and 1 mg/kg 5-MeO-DMT” value (Sprague–Dawley rats [2]; WAY-100,635 1 mg/kg pretreatment, p<0.01, Tukey's test)?
The value was “significantly antagonized”.

Which results are given for C#CCN(C)Cc1ccccc1 [Pargyline, pargyline HCl]?
Startle magnitude (mean±SEM) (Sprague–Dawley rats [1]; pargyline 10 mg/kg SC pretreatment, vehicle treatment, experiment 1, n=10): 167.66±22.30; Effect on PPI (Sprague–Dawley rats [2]; pargyline 10 mg/kg alone compared with vehicle pretreatment): did not significantly reduce PPI

With COc1ccc2[nH]cc(CCN(C)C)c2c1 [5-MeO-DMT, 5-Methoxy-N,N-dimethyltryptamine] as the compound, how does the “Startle magnitude (mean±SEM)” value (Sprague–Dawley rats [1]; clorgyline 0.3 mg/kg pretreatment, 5-MeO-DMT 1.0 mg/kg SC, 45 min, experiment 2, n=12) read?
Its value is 544.45±62.88.

What about the “Startle magnitude (mean±SEM)” value (Sprague–Dawley rats [1]; vehicle pretreatment, 5-MeO-DMT 0.1 mg/kg SC, tested 45 min post-injection, experiment 1, n=10) of the same compound?
Its value is 180.58±37.92.

And the “Startle magnitude (mean±SEM)” value (Sprague–Dawley rats [1]; vehicle pretreatment, 5-MeO-DMT 1.0 mg/kg SC, 45 min, experiment 1, n=10)?
The value was 274.12±56.96.

What about the “Effect on PPI” value (Sprague–Dawley rats [2]; 5-MeO-DMT 1.0 mg/kg SC in animals pretreated with clorgyline 0.3 mg/kg, 45 min, all three prepulse intensities, p<0.01) of the same compound?
Its value is “significantly reduced PPI”.

What about the “Effect on PPI” value (Sprague–Dawley rats [2]; 5-MeO-DMT 1 mg/kg SC in animals pretreated with pargyline 10 mg/kg, 45 min, all three prepulse intensities, p<0.01) of the same compound?
Its value is “significantly reduced PPI”.

What about the “Effect on PPI” value (Sprague–Dawley rats [2]; 5-MeO-DMT 1.0 mg/kg SC, saline-pretreated animals, 45 min, experiment 2) of the same compound?
The value was “did not alter PPI”.

What about the “Effect on PPI” value (Sprague–Dawley rats [2]; 5-MeO-DMT 0.1 or 1.0 mg/kg SC, saline-pretreated animals, tested 45 min post-injection, experiment 1) of the same compound?
The value was “did not alter PPI”.

What about the “Crossings (locomotor activity) versus vehicle pretreatment” value (Sprague–Dawley rats [3]) of the same compound?
The value was “significantly more crossings”.

What about the “time at which level of 5-MeO-DMT in plasma peaked” value [4, 9] of the same compound?
The value was ≤ 20 min.

What about the AUC [4, 10] of the same compound?
The AUC was 31.4 ± 2.3 ng·h/mL.

And the AUC ([4]; vehicle pretreatment)?
The AUC was 12.2 ± 1.7 ng·h/mL.

And the Cmax [4, 10]?
Its Cmax is 78.1 ± 9.5 ng/mL.

What about the Cmax ([4]; vehicle pretreatment) of the same compound?
The Cmax was 52.7 ± 11.8 ng/mL.

What about the “peak level of 5-MeO-DMT in the brain” value ([5]; 1 mg/kg SC, no MAO inhibitor) of the same compound?
Its value is 144.3 nM.

What about the “time at which level of 5-MeO-DMT in brain peaked” value [5, 9] of the same compound?
Its value is ≤ 20 min.

What about the Cmax ([5]; 1 mg/kg SC, clorgyline 0.3 mg/kg pretreatment) of the same compound?
Its Cmax is 634 ± 146 ng/g.

What about the Cmax ([5]; 1 mg/kg SC, vehicle pretreatment) of the same compound?
The Cmax was 30.3 ± 11.2 ng/g.

And the “doses eliciting the head twitch response (HTR)” value (5-HT2A [6])?
Its value is 0.2 to 1 mg/kg.

And the “concentration of 5-MeO-DMT required to activate 5-HT2A” value (5-HT2A [7]; ref Blair et al. 2000, Parrish and Nichols 2006)?
Its value is “low micromolar range”.

And the “concentration of 5-MeO-DMT required to activate 5-HT2A” value (5-HT2A [7]; ref Newton et al. 1996, Rabin et al. 2002, Kurrasch-Orbaugh et al. 2003, Strachan et al. 2010)?
The value was “several hundred nanomolar”.

And the “concentrations inhibiting 5-HT uptake” value (5-HT uptake)?
Its value is “low micromolar concentrations”.

And the “increase of 5-MeO-DMT blood levels by iproniazid” value [8]?
Its value is 40 fold.

What about the “increase of 5-MeO-DMT brain levels by iproniazid” value [8] of the same compound?
Its value is ~100 fold.
